Results on one molecule are retold here after patent publication US20190070266A1 (Novo Nordisk A/S, priority 2016, published 2019).

For the data set, the system named is adult human subjects with type 2 diabetes at high risk for cardiovascular events. Description: Same trial: adverse events by preferred term with frequency of at least 0.1%. Type of data set: in vivo. Conditions: full analysis set. As for the experimental part:
A long-term, multi-centre, international, randomised double-blind, placebo-controlled trial with 9340 human subjects was carried out with treatment for at least 3.5 years and up to 5 years per subject; and this trial concerned the incidence of cardiovascular events in adult human subjects with type 2 diabetes that were at high risk for cardiovascular events, including such subjects with existing cardiovascular disease. […] All trial endpoints were collected and assessed throughout the entire duration of the trial. Subject inclusion and exclusion criteria were as described in Table 2. The subject's characteristics, cardiovascular risk profile, renal function, cardiovascular medication, and antidiabetic treatment regimens of the randomised subjects at baseline were as shown in Tables 3a-e. Overall trial duration was planned as 18 months of recruitment period followed by 42 months of treatment from last subject randomised. […] After randomisation, treatment with liraglutide or placebo was double-blind throughout the trial. […] The term “placebo” as used herein refers to a formulation identical to the liraglutide formulation except not comprising liraglutide and the placebo was administered in the volume used in the equivalent liraglutide dosage. […] The dosage could be reduced at any time in the trial if required by the subject's tolerance to the trial product. […] The subcutaneous injection was made either in the abdomen, thigh or upper arm.
The term “baseline” herein (e.g. used as part of “baseline characteristics” or “baseline cardiovascular risk profile”) may refer to the level of a certain parameter (e.g. level of HbA1c) by the determination made in connection with the medical visit at the time of randomisation of the subject.
The results of this trial may be presented herein as a number or fraction of subjects experiencing an event. Alternatively, the results of this trial may be presented with hazard ratios estimated in a Cox proportional hazard model, which is the standard statistical model used for estimating time to an event. […] A 5% significance level is the standard level for investigating significance in clinical trials.

Setting [1] is: Preferred term: Diabetic foot infection.

As to `CCCCCCCCCCCCCCCC(=O)N[C@@H](CCC(=O)NCCCC[C@H](NC(=O)[C@H](C)NC(=O)[C@H](C)NC(=O)[C@H](CCC(N)=O)NC(=O)CNC(=O)[C@H](CCC(=O)O)NC(=O)[C@H](CC(C)C)NC(=O)[C@H](Cc1ccc(O)cc1)NC(=O)[C@H](CO)NC(=O)[C@H](CO)NC(=O)[C@@H](NC(=O)[C@H](CC(=O)O)NC(=O)[C@H](CO)NC(=O)[C@@H](NC(=O)[C@H](Cc1ccccc1)NC(=O)[C@@H](NC(=O)CNC(=O)[C@H](CCC(=O)O)NC(=O)[C@H](C)NC(=O)[C@@H](N)Cc1cnc[nH]1)[C@@H](C)O)[C@@H](C)O)C(C)C)C(=O)N[C@@H](CCC(=O)O)C(=O)N[C@@H](Cc1ccccc1)C(=O)N[C@H](C(=O)N[C@@H](C)C(=O)N[C@@H](Cc1c[nH]c2ccccc12)C(=O)N[C@@H](CC(C)C)C(=O)N[C@H](C(=O)N[C@@H](CCCNC(=N)N)C(=O)NCC(=O)N[C@@H](CCCNC(=N)N)C(=O)NCC(=O)O)C(C)C)[C@@H](C)CC)C(=O)O` [Liraglutide, Arg34,Lys26-(N-epsilon-(gamma-L-glutamyl(N-alfa-hexadecanoyl)))-GLP-1(7-37)], the “Adverse events by preferred term, % (proportion of subjects experiencing at least one event)” value came out at 0.3% under setting [1], 2.8% (Preferred term: Diabetic foot), 0.2% (Preferred term: Gangrene) and 0.6% (Preferred term: Skin ulcer). Besides, the “Adverse events by preferred term, R (rate, events per 100 PYO)” value (“Adverse events … (rate, events per 100 PYO)” below) under setting [1] was below 0.1 events per 100 PYO; the “Adverse events … (rate, events per 100 PYO)” value (Preferred term: Diabetic foot) came to 1.0 events per 100 PYO; the “Adverse events … (rate, events per 100 PYO)” value (Preferred term: Gangrene) is reported as below 0.1 events per 100 PYO; the “Adverse events … (rate, events per 100 PYO)” value (Preferred term: Skin ulcer) amounted to 0.2 events per 100 PYO.
